Literature values, collected in US9468651B1, “Method of removing moles” (priority 2009, dated 2016).

Settings: property of the ingredient stated with a literature reference (Merck Index; Concise Encyclopedia of Chemical Technology)

In the case of `[K+].[OH-]` [Potassium hydroxide], the PH value is listed as 13.5.
